Results: US20260049089A1, “KRAS INHIBITOR COMPOUND” (SHANGHAI APEIRON THERAPEUTICS COMPANY LIMITED, priority 2022, published 2026)
pIC50: −log10 of the molar value. Like-named read-outs stand apart in the source and are kept apart here.

Key:
[1] = test system: pERK in AGS cells; assay: ERK phosphorylation cell assay, AGS; type: cell-based; conditions: 3 hours compound incubation, read-out: pERK AGS_IC50
Method: (§1) • Day 1: AGS cells were seeded into a 384-well cell culture plate and incubated overnight at 37° C. with 5% CO2 in a cell culture incubator. • Day 2: Compounds were added to the plate using an Echo550 liquid handler, followed by incubation at 37° C. with 5% CO2 in a cell culture incubator for 3 hours. Subsequently, the cells were fixed with paraformaldehyde, permeabilized with methanol, and blocked with blocking buffer. A primary antibody mixture (rabbit anti-pERK, mouse anti-GAPDH) was added, and the plate was incubated overnight at 4° C. • Day 3: The primary antibodies were removed, and a secondary antibody mixture (goat anti-rabbit 800CW, goat anti-mouse 680RD) was added. The plate was incubated at room temperature in the dark. After three washes with PBST, the plate was inverted and centrifuged for 1 minute. Fluorescence signal values were read using an Odyssey CLx imaging system.
(§2) [formula] • Negative control: DMSO • Positive control: 10 μM Reference • Fitted using XLFit 5.0 with the following parameters:
(§3) [formula] • X: Log of compound concentration • Y: Mean relative expression levels of p-ERK across replicates

[2] = test system: pERK in AsPC-1 cells; assay: ERK phosphorylation cell assay, AsPC-1; type: cell-based; conditions: read-out: pERK AsPC-1_IC50
Method: [Worded in the source for another cell line; this cell line is reported under the same test.] as §1, §2, §3

[3] = Homo sapiens, ASPC1, AsPC-1 cells

Compound	pIC50 ([1]; Homo sapiens, AGS, 3 h)	pIC50 [2, 3]	pIC50 [1]	pIC50 ([2]; AsPC-1 cells)
O=C1NCCCCCc2c(F)ccc3cc(O)cc(c23)-c2c1cc1c(N3CC4CCC(C3)N4)nc(OC[C@@]34CCCN3C[C@H](F)C4)nc1c2F [Example 14, 12-((1R,5S)-3,8-diazabicyclo[3.2.1]oct-3-yl)-3,16-difluoro-14-(((2R,7aS)-2-fluorotetrahydro-1H-pyrazin-7a(5H)-yl)methoxy)-18-hydroxy-4,5,6,7,8,9-hexahydro-10H-naphtho[1′,8′:5,6,7][1]azacyclododecano[3,4-g]quinazolin-10-one]	5.56	5.42	–	–
C[C@@]1(O)CCCN(c2nc(OCC34CCCN3C[C@]3(C4)CC3(F)F)nc3c(F)c4c(cc23)NCCCCCc2c(F)ccc3cc(O)cc-4c23)C1 (single isomer, unassigned) [Example 24B]	–	–	5.72	5.14
C=C1CN2CCCC2(COc2nc(N3CCC[C@@](C)(O)C3)c3cc4c(c(F)c3n2)-c2cc(O)cc3ccc(F)c(c23)CC/C=C\CN4)C1 (stereo partly drawn) [Example 32, (Z)-3,15-difluoro-11-((R)-3-hydroxy-3-methylpiperidin-1-yl)-13-((2-methylenetetrahydro-1H-pyrazin-7a(5H)-yl)methoxy)-4,5,8,9-tetrahydronaphtho[1′,8′:4,5,6][1]azacycloondecano[2,3-g]quinazolin-17-ol]	6.19	5.95	–	–
13-((2,2-difluoro-6-methylenetetrahydro-1H-pyrazin-7a(5H)-yl)methoxy)-3,15-difluoro-11-((R)-3-hydroxy-3-methylpiperidin-1-yl)-4,5,6,7,8,9-hexahydronaphtho[1′,8′:4,5,6][1]azacycloundecano[2,3-g]quinazolin-17-ol [Example 38]	–	–	< 5.00	< 5.00
[2H]C([2H])([2H])N1C(=O)CCCCc2c(F)ccc3cc(O)cc(c23)-c2c1cc1c(N3CCC[C@@](C)(O)C3)nc(OC[C@@]34CCCN3C[C@H](F)C4)nc1c2F [Example 41, 3,15-Difluoro-13-(((2R,7aS)-2-fluoro-tetrahydro-1H-pyrazin-7a(5H)-yl)methoxy)-17-hydroxy-11-((R)-3-hydroxy-3-methylpiperidin-1-yl)-9-(trideuteromethyl)-4,5,6,7-tetrahydronaphtho[1′,8′:4,5,6][1]azacycloundecino[2,3-g]quinazolin-8(9H)-one]	6.51	5.55	–	–
CC1(O)CCCN(c2nc(OCC(F)(F)F)nc3c(F)c4c(cc23)NCCCCCc2c(F)ccc3cc(O)cc-4c23)C1 [Example 17B, (R)-3,15-difluoro-11-(3-hydroxy-3-methylpiperidin-1-yl)-13-(2,2,2-trifluoroethoxy)-4,5,6,7,8,9-hexahydro-naphtho[1′,8′:4,5,6111]azacycloundecino[2,3-g]quinazoline-17-ol]	–	–	< 5.00	< 5.00
C[C@@]1(O)CCCN(c2nc(OCC34CCCN3CCC4)nc3c(F)c4c(cc23)NCCCCCc2c(F)ccc3cc(O)cc-4c23)C1 (single isomer, unassigned) [Example 21B]	–	–	6.29	5.34
O=C1CCCCCCCCc2c(F)ccc3cc(O)cc(c23)-c2c(cc3c(N4CC5CCC(C4)N5)nc(OCC45CCCN4CC(F)C5)nc3c2F)N1 [Example 10, 15-((1R,5S)-3,8-diazabicyclo[3.2.1]octan-3-yl)-3,19-difluoro-17-(((2R,7aS)-2-fluorotetrahydro-1H-pyrazin-7a(5H)-yl)methoxy)-21-hydroxy-4,5,6,7,8,9,10,11-octahydronaphtho[1′,8′:4,5,6][1]azacyclopentadecano[2,3-g]quinazolin-12(13H)-one]	–	–	< 5.00	< 5.00
C[C@@]1(O)CCCN(c2nc(OC[C@@]34CCCN3C[C@H](F)C4)nc3c(F)c4c(cc23)NCCOCCc2c(F)ccc3cccc-4c23)C1 (single isomer, unassigned) [Example 52A]	–	–	5.70	5.51
O=C1CCCc2c(F)ccc3cc(O)cc(c23)-c2c(cc3c(N4CC5CCC(C4)N5)nc(OC[C@@]45CCCN4C[C@H](F)C5)nc3c2F)N1 [Example 1, 10-((1R,5S)-3,8-Diazabicyclo[3.2.1]octan-3-yl)-3,14-difluoro-12-(((2R,7aS)-2-fluorotetrahydro-1H-pyrazin-7a(5H)-yl)methoxy)-16-hydroxy-5,6-dihydro-4H-naphtho[1′,8′:4,5,6]acridin[2,3-g]quinazolin-7(8H)-one]	5.67	5.61	–	–
C[C@@]1(O)CCCN(c2nc(OCC34CCCN3CC(=C(F)F)C4)nc3c(F)c4c(cc23)NCCCCCc2c(F)ccc3cc(O)cc-4c23)C1 (some centres unmarked) [Example 29]	5.27	5.34	–	–
Oc1cc2c3c(c(F)ccc3c1)CCCCNc1cc3c(N4CC5CCC(C4)N5)nc(OC[C@@]45CCCN4C[C@H](F)C5)nc3c(F)c1-2 [Example 2, 10-((1R,5S)-3,8-Diazabicyclo[3.2.1]octan-3-yl)-3,14-difluoro-12-(((2R,7aS)-2-fluorotetrahydro-1H-pyrazin-7a(5H)-yl)methoxy)-5,6,7,8-tetrahydro-4H-naphtho[1′,8′:4,5,6]acridin[2,3-g]quinazolin-16-ol]	6.81	6.15	–	–
O=C1CCCc2c(F)ccc3cc(O)cc(c23)-c2c(cc3c(N4CC5CCC(C4)N5)nc(OCC(F)(F)F)nc3c2F)N1 [Example 15, 10-((1R,5S)-3,8-diazabicyclo[3.2.1]octan-3-yl)-3,14-difluoro-16-hydroxy-12-(2,2,2-trifluoroethoxy)-5,6-dihydro-4H-naphtho[1′,8′:4,5,6]azacycloundecino[2,3-g]quinazolin-7(8H)-one]	< 5.00	–	–	–
O=C1NCCCc2c(F)ccc3cc(O)cc(c23)-c2c1cc1c(N3CC4CCC(C3)N4)nc(OC[C@@]34CCCN3C[C@H](F)C4)nc1c2F [Example 12, 10-((1R,5S)-3,8-diazabicyclo[3.2.1]oct-3-yl)-3,14-difluoro-12-(((2R,7aS)-2-fluorotetrahydro-1H-pyrazin-7a(5H)-yl)methoxy)-16-hydroxy-4,5,6,7-tetrahydro-8H-naphtho[1′,8′:5,6,7]acredo [3,4-g]quinazolin-8-one]	5.26	< 5.00	–	–
O=C1CCCCCc2c(F)ccc3cc(O)cc(c23)-c2c(cc3c(N4CC5CCC(C4)N5)nc(OC[C@@]45CCCN4C[C@H](F)C5)nc3c2F)N1 [Example 9A, 12-((1R,5S)-3,8-diazabicyclo[3.2.1]octan-3-yl)-3,16-difluoro-14-(((2R,7aS)-2-fluorotetrahydro-1H-pyrazin-7a(5H)-yl)methoxy)-18-hydroxy-5,6,7,8-tetrahydro-4H-naphtho[1′,8′:4,5,6][1]azacyclododecino[2,3-g]quinazolin-9(10H)-one]	–	–	6.16	5.71
C=C1CN2CC(F)(F)CC2(COc2nc(N3CCC[C@@](C)(O)C3)c3cc4c(c(F)c3n2)-c2cc(O)cc3ccc(F)c(c23)CCCCCN4)C1 (single isomer, unassigned) [Example 57A]	–	< 5.00	5.94	–
C=C1CN2CCC[C@@]2(COc2nc(N3CCC[C@@](C)(O)C3)c3cc4c(c(F)c3n2)-c2cc(O)cc3ccc(F)c(c23)CCOCCN4)C1 (single isomer, unassigned) [Example 42C]	–	–	–	7.00
